Assay results taken from patent US12486234B2, “PAPD5 inhibitors and methods of use thereof” (Children's Medical Center Corporation, priority 2019, dated 2025).

What was measured:
PAPD5 [1] = target: T1, PAPD5 (Homo sapiens, UniProt Q8NDF8); assay: RNA oligo-adenylation (oligo-extension) inhibition assay with recombinant PAPD5; type: biochemical; parameters: key: minimal activity (0); range from minimal activity (0) to that of compound 1 (+++); range from minimal activity (0) to that of compound 1 (+++); that of compound 1 (+++); settings: qualitative measure of RNA oligo-extension inhibition, relative to compound 1
T1 construct: made in house
T1 sequence (Q8NDF8 68-698 isoform Q8NDF8-5 limits assumed): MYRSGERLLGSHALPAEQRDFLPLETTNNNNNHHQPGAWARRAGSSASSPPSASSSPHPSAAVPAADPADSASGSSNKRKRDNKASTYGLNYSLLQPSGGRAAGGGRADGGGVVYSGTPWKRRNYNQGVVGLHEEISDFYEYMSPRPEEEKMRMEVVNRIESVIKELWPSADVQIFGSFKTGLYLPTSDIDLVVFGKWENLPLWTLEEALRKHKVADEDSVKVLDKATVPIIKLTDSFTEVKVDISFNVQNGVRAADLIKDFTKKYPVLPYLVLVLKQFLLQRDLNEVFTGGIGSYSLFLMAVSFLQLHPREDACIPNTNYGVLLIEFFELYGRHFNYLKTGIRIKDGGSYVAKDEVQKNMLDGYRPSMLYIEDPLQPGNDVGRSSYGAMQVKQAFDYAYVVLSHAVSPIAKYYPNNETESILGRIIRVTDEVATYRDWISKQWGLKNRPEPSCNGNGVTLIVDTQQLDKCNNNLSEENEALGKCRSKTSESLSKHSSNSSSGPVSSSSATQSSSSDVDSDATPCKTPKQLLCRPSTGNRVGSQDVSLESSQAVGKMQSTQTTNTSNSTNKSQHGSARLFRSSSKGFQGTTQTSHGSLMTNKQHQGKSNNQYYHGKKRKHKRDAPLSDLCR
Experimental: An in vitro RNA polyadenylation assay using recombinant PAPD5, ATP and an oligonucleotide substrate utilized the following phenomenon: ATP utilization by PAPD5 reads out as a decreased luminescence signal produced by luciferase (KinaseGlo, Promega, Madison, WI).
(§1) Qualitative measure of RNA oligo-extension inhibition for the tested compounds, expressed as range from minimal activity (0) to that of compound 1 (+++), and results of a DSF binding assay (shown as shift in temperature at 100 μM of the compound) are shown in the Table 2 below.

PAPD5 [2] = target: T1, PAPD5; assay: DSF binding assay (shift in temperature); settings: shift in temperature at 100 μM of the compound
Experimental: as §1

| Inhibition of PAPD5 RNA oligo adenylation (PAPD5 [1]) | ΔTm at 100 µM (PAPD5 [2]) | ΔTm 100 μM (PAPD5 [2]) | SMILES |
| --- | --- | --- | --- |
| 0 | 0.4 °C |  | CCOC(=O)c1cnc2ccc(OC(F)(F)F)cc2c1Nc1ncccc1C(=O)O [Compound 1A, 2-[[3-ethoxycarbonyl-6-(trifluoromethoxy)-4-quinolyl]amino]pyridine-3-carboxylic acid] |
| 0 | 2.3 °C |  | CCOC(=O)c1cnc2ccc(OC(F)(F)F)cc2c1Nc1scnc1C(=O)O [Compound 5A, 5-((3-(ethoxycarbonyl)-6-(trifluoromethoxy)quinolin-4-yl)amino)thiazole-4-carboxylic acid] |
| + | 1 °C |  | CCOC(=O)c1cnc2ccc(OC(F)(F)F)cc2c1Nc1ccccc1-c1nn[nH]n1 [Compound 10A, ethyl 4-[2-(2H-tetrazol-5-yl)anilino]-6-(trifluoromethoxy)quinoline-3-carboxylate] |
| + | 6.1 °C |  | CN(C)C(=O)c1cnc2ccc(OC(F)(F)F)cc2c1Nc1ccccc1C(=O)O [Compound 12A, 2-[[3-(dimethylcarbamoyl)-6-(trifluoromethoxy)-4-quinolyl]amino]benzoic acid] |
| ++ | 1.7 °C |  | O=C(O)c1ccccc1Nc1c(C(=O)N2CCNCC2)cnc2ccc(OC(F)(F)F)cc12 [Compound 14A, 2-[[3-(piperazine-1-carbonyl)-6-(trifluoromethoxy)-4-quinolyl]amino]benzoic acid] |
| 0 | -0.1 °C |  | CCOC(=O)c1cnc2ccc(C(=O)N3CCNCC3)cc2c1Nc1ccccc1C(=O)O [Compound 18A, 2-[[3-ethoxycarbonyl-6-(piperazine-1-carbonyl)-4-quinolyl]amino]benzoic acid] |
| 0 | 0.6 °C |  | CCOC(=O)c1cnc2ccc(OC3CCNCC3)cc2c1Nc1ccccc1C(=O)O [Compound 19A, 2-[[3-ethoxycarbonyl-6-(4-piperidyloxy)-4-quinolyl]amino]benzoic acid] |
| +++ | 4.6 °C |  | CCOC(=O)c1cnc2ccc(-c3cccc4[nH]ccc34)cc2c1Nc1ccccc1C(=O)O [Compound 23A, 2-[[3-ethoxycarbonyl-6-(1H-indol-4-yl)-4-quinolyl]amino]benzoic acid] |
| 0 | 2.8 °C |  | O=C(O)c1cccn2c(=O)c3cnc4ccc(OC(F)(F)F)cc4c3nc12 [Compound 27A, 14-oxo-7-(trifluoromethoxy)-17,18,19-triazatetracyclooctadeca-(4),1(8),2(7),3(9),5(10),6(17),11,13(18)-octaene-8-carboxylic acid] |
| + | 5.5 °C |  | O=C(O)c1cccnc1Nc1c(C(=O)O)cnc2ccc(OC(F)(F)F)cc12 [Compound 28A, 4-[(3-carboxy-2-pyridyl)amino]-6-(trifluoromethoxy)quinoline-3-carboxylic acid] |
| +++ | 4.9 °C |  | CCOC(=O)c1cnc2ccc(-n3ccc4cc(O)ccc43)cc2c1Nc1ccccc1C(=O)O [Compound 29A, 2-[[3-ethoxycarbonyl-6-(5-hydroxyindol-1-yl)-4-quinolyl]amino]benzoic acid] |
| 0 | 1.7 °C |  | O=c1c2cnc3ccc(OC(F)(F)F)cc3c2[nH]c2ccnn12 [Compound 30A, 6-(trifluoromethoxy)-14,15,16,17-tetrazatetracycloheptadeca-(6),1(7),2(8),3(15),4(9),5(16),10-heptaen-12-one] |
| 0 | 1.8 °C |  | CCOC(=O)c1ncn2c1[nH]c(=O)c1cnc3ccc(OC(F)(F)F)cc3c12 [Compound 31A, ethyl 14-oxo-7-(trifluoromethoxy)-17,18,19,20-tetrazatetracycloheptadeca-1(7),2(8),3(9),4(18),5(19),10,12-heptaene-12-carboxylate] |
| 0 | 0.7 °C |  | CCOC(=O)c1cnc2ccc(OC(F)(F)F)cc2c1Nc1scnc1C(=O)OCC [Compound 33A, ethyl 5-[[3-ethoxycarbonyl-6-(trifluoromethoxy)-4-quinolyl]amino]thiazole-4-carboxylate] |
| 0 | 0.3 °C |  | CCOC(=O)c1cnc2ccc(OC(F)(F)F)cc2c1Nc1ccccc1S(=O)(=O)NCC(F)(F)F [Compound 34A, ethyl 4-[2-(2,2,2-trifluoroethylsulfamoyl)anilino]-6-(trifluoromethoxy)quinoline-3-carboxylate] |
| +++ |  | fluorescent | N#Cc1cnc2ccc(-c3cccc4ncccc34)cc2c1Nc1ccccc1C(=O)O [Compound 54A, 2-[[3-cyano-6-(5-quinolyl)-4-quinolyl]amino]benzoic acid] |
| +++ | 13.9 °C |  | COCCCOc1cc2ncc(C#N)c(Nc3cccc(O)c3C(=O)O)c2cc1OC [Compound 55A, 2-[[3-cyano-6-methoxy-7-(3-methoxypropoxy)-4-quinolyl]amino]-6-hydroxy-benzoic acid] |
| 0 | 0.4 °C |  | COCCCOc1cc2ncc(C#N)c(-n3ccc(=O)c(C(=O)O)c3)c2cc1OC [Compound 56A, 1-[3-cyano-6-methoxy-7-(3-methoxypropoxy)-4-quinolyl]-4-oxo-pyridine-3-carboxylic acid] |
|  | 6.3 °C |  | NS(=O)(=O)c1cnc2ccc(-c3cccc4ncoc34)cc2c1Nc1ccccc1C(=O)O [Compound 64A, 2-[[6-(1,3-benzoxazol-7-yl)-3-sulfamoyl-4-quinolyl]amino]benzoic acid] |
|  |  | fluorescent | O=C(O)c1c(Nc2c(S(=O)(=O)N3CCOCC3)cnc3ccc(Br)cc23)ccc(Br)c1O [Compound 78A-BR, 3-bromo-6-[(6-bromo-3-morpholinosulfonyl-4-quinolyl)amino]-2-hydroxy-benzoic acid] |
|  | 0 °C |  | COc1cccc(Nc2c(S(=O)(=O)N3CCOCC3)cnc3ccc(Cl)cc23)c1C(=O)O [Compound 79A-INT, 2-[(6-chloro-3-morpholinosulfonyl-4-quinolyl)amino]-6-methoxy-benzoic acid] |
|  | 0 °C |  | CC(=O)Nc1cccc(Nc2c(S(=O)(=O)N3CCOCC3)cnc3ccc(Br)cc23)c1C(=O)O [Compound 85A, 2-acetamido-6-[(6-bromo-3-morpholinosulfonyl-4-quinolyl)amino]benzoic acid] |
|  | 6.8 °C |  | Nc1cccc(Nc2c(S(=O)(=O)N3CCOCC3)cnc3ccc(Br)cc23)c1C(=O)O [Compound 85A-BP, 2-amino-6-[(6-bromo-3-morpholinosulfonyl-4-quinolyl)amino]benzoic acid] |
|  | 0 °C |  | COc1cccc(Nc2c(S(=O)(=O)N3CCN(C(=O)OCc4ccccc4)CC3)cnc3ccc(Br)cc23)c1C(=O)O [Compound 93A-INT, 2-[[3-(4-benzyloxycarbonylpiperazin-1-yl)sulfonyl-6-bromo-4-quinolyl]amino]-6-methoxy-benzoic acid] |

| SMILES | Inhibition of PAPD5 RNA oligo adenylation (PAPD5 [1]) | ΔTm at 100 µM (PAPD5 [2]) | ΔTm 100 μM (PAPD5 [2]) |
| --- | --- | --- | --- |
| O=C(O)c1ccccc1Nc1c(C(=O)N2CCOCC2)cnc2ccc(OC(F)(F)F)cc12 [Compound 13A, 2-[[3-(morpholine-4-carbonyl)-6-(trifluoromethoxy)-4-quinolyl]amino]benzoic acid] | + | 5.6 °C |  |
| N#Cc1cnc2ccc(OC(F)(F)F)cc2c1Nc1ccccc1C(=O)O [Compound 15A, 2-[[3-cyano-6-(trifluoromethoxy)-4-quinolyl]amino]benzoic acid] |  | 8.8 °C |  |
| NS(=O)(=O)c1cnc2ccc(OC(F)(F)F)cc2c1Nc1ccccc1C(=O)O [Compound 16A, 2-[[3-sulfamoyl-6-(trifluoromethoxy)-4-quinolyl]amino]benzoic acid] | +++ | 9.6 °C |  |
| O=C(O)c1ccccc1Nc1c(-c2ncco2)cnc2ccc(OC(F)(F)F)cc12 [Compound 17A, 2-[[3-oxazol-2-yl-6-(trifluoromethoxy)-4-quinolyl]amino]benzoic acid] | +++ | 8.4 °C |  |
| CCOC(=O)c1cnc2ccc(OC(F)(F)F)cc2c1Nc1ccccc1C#N [Compound 25A, ethyl 4-(2-cyanoanilino)-6-(trifluoromethoxy)quinoline-3-carboxylate] | 0 | 0.1 °C |  |
| CCOC(=O)c1cnc2ccc(Br)cc2c1Nc1ccccc1C(=O)O [Compound 26A, 2-[(6-bromo-3-ethoxycarbonyl-4-quinolyl)amino]benzoic acid] | +++ | 11.1 °C |  |
| CCOC(=O)c1cnc2ccc(OC(F)(F)F)cc2c1Nc1ccccc1C(=O)O [Compound 32A, 2-[[3-ethoxycarbonyl-6-(trifluoromethoxy)-4-quinolyl]amino]benzoic acid] | +++ | 7.9 °C |  |
| COCCCOc1cc2ncc(C#N)c(Nc3ccccc3C(=O)O)c2cc1OC [Compound 51A, 2-[[3-cyano-6-methoxy-7-(3-methoxypropoxy)-4-quinolyl]amino]benzoic acid] | + | 7.9 °C |  |
| COCCCOc1cc2ncc(C(=O)N3CCOCC3)c(Nc3ccccc3C(=O)O)c2cc1OC [Compound 53A, 2-[[6-methoxy-7-(3-methoxypropoxy)-3-(morpholine-4-carbonyl)-4-quinolyl]amino]benzoic acid] | + | 5.2 °C |  |
